Values quoted from earlier work, collected in article PMC2757550 (Bioconjugate chemistry, 2009).

Test system: mouse vas deferens preparation

With Dmt-Tic-Glu-NH(CH2)5NH-fluorescein as the substance, how does the “removal from preparation by extensive washing (in words)” value read?
Its value is “cannot be removed from the mouse vas deferens preparation by extensive washing”.
